Assay [1] addresses T1, human GHS receptor (Homo sapiens, UniProt Q92847). Nature of the assay: h bind IC50 (binding assay, Table 1). The conditions noted are these: human receptor; Table 1.
In assay [2] the target is T1, human GHS receptor. The assay is described as follows: Ghrelin IP1 agonist assay (IP1 HTRF). It counts as cell-based. More on the design: expressed in transfected cells; host or cells: HEK293s. The conditions noted are these: for Emax: 2 h, agonist effect as % maximal effect of GHRP-6 (5 μM), read-out: h IP1 ag %; for EC50: HEK293s cells stably expressing human GHS receptor, 2 hours at 37° C., read-out: h IP1 ag EC50. The method in brief: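 Cells: HEK293s stably expressing human GHS receptor, in stimulation buffer containing 0.02% fatty acid free BSA.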
A general note: TR-FRET usually uses a lanthanide donor and a delayed reading to cut background.

SMILES strings stand for the structures.

Experimental findings from patent publication US20120115845A1, “THERAPEUTIC AGENTS” (priority 2007, published 2012) are described below.

T1 sequence (Q92847 whole entry): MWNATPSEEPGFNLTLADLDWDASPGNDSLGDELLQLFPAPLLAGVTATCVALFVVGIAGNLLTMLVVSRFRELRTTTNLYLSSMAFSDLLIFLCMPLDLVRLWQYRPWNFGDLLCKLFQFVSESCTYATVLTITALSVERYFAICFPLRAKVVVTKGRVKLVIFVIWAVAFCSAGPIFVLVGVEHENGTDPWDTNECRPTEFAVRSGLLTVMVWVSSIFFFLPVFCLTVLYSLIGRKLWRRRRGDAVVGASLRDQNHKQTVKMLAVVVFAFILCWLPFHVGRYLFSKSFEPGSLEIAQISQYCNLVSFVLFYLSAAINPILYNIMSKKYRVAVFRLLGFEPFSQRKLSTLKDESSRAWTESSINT

As a reminder, the IC50 is the midpoint of a concentration-inhibition curve. A lower IC50 goes with inhibition by little substance. A word on the EC50: it is the concentration that produces a half-maximal response. On human GHS receptor [1], `CS(=O)(=O)c1ccc2nc(NC(=O)NC(=O)c3ccccc3-n3cccc3)sc2c1` [Example 134, N-[(6-Methylsulfonylbenzothiazol-2-yl)carbamoyl]-2-pyrrol-1-yl-benzamide] registered an IC50 of 218 nM. Besides, at human GHS receptor [2], the Emax is 63.9% and the EC50 turned out to be 13.3 nM.

On human GHS receptor [1], `C#Cc1ccc(Cl)c(C(=O)NC(=O)Nc2nc3ccc(S(=O)(=O)CCCN4CCN(C)CC4)cc3s2)c1` [Example 220, 2-Chloro-5-ethynyl-N-[[6-[3-(4-methylpiperazin-1-yl)propylsulfonyl]benzothiazol-2-yl]carbamoyl]benzamide] registered a concentration for half-maximal inhibition (IC50) of 2.8 nM. Further, on human GHS receptor [2], the Emax was determined as 21.4% and the EC50 turned out to be 4.01 nM.

For `CS(=O)(=O)c1ccc2nc(NC(=O)NC(=O)c3cc(CN4CCCC4)ccc3Cl)sc2c1` [Example 62, 2-Chloro-5-pyrrolidin-1-ylmethyl-N-(6-(methylsulfonyl)benzothiazol-2-ylcarbamoyl)benzamide], at human GHS receptor [1], the IC50 was determined as 1740 nM. In addition, on human GHS receptor [2], the Emax was found to be 9.06% and the EC50 is not below 25000 nM.

In turn, `Cc1ccc(C)n1-c1ccc(C(=O)NC(=O)Nc2nc3ccc(S(C)(=O)=O)cc3s2)c(Cl)c1` [Example 119, 2-Chloro-4-(2,5-dimethylpyrrol-1-yl)-N-[(6-methylsulfonylbenzothiazol-2-yl)carbamoyl]benzamide] gave an IC50 at human GHS receptor [1] of 24.3 nM. For the same molecule, on human GHS receptor [2], the Emax was 9.26% and the EC50 was 15700 nM.

In the case of `CN1CCN(CCCS(=O)(=O)c2ccc3nc(NC(=O)NC(=O)c4cc(-c5cncs5)ccc4Cl)sc3c2)CC1` [Example 96, 2-Chloro-N-(6-(3-(4-methylpiperazin-1-yl)propylsulfonyl)benzothiazol-2-ylcarbamoyl)-5-(thiazol-5-yl)benzamide], the IC50 on human GHS receptor [1] worked out at 2.9 nM. For the same molecule, at human GHS receptor [2], the Emax was found to be 13.1% and the EC50 was found to be 432 nM.

The molecule `O=C(NC(=O)c1ccccc1Cl)Nc1nc2ccc(S(=O)(=O)CCN3CCC(F)(F)C3)cc2s1` [Example 21, 2-Chloro-N-[[6-[2-(3,3-difluoropyrrolidin-1-yl)ethylsulfonyl]benzothiazol-2-yl]carbamoyl]benzamide] came in with a half-maximal inhibitory concentration (IC50) at human GHS receptor [1] of 1680 nM. For the same molecule, on human GHS receptor [2], the Emax stood at 16.9% and the EC50 was 221 nM.

For the molecule `CN(C)C1CCN(c2ccc(Cl)c(C(=O)NC(=O)Nc3nc4ccc(S(C)(=O)=O)cc4s3)c2)C1` (stereo not drawn) [Example 60, 2-Chloro-5-(3-(dimethylamino)pyrrolidin-1-yl)-N-(6-(methylsulfonyl)benzothiazol-2-ylcarbamoyl)benzamide], on human GHS receptor [1], the IC50 was determined as 33 nM. On human GHS receptor [2], the Emax worked out at 0.647% and the EC50 is more than 25000 nM.

In the case of `CC(C)N1CCC[C@H](COc2ccc(Cl)c(C(=O)NC(=O)Nc3nc4ccc(S(C)(=O)=O)cc4s3)c2)C1` [Example 228, (S)-2-chloro-5-((1-isopropylpiperidin-3-yl)methoxy)-N-(6-(methylsulfonyl)benzo[d]thiazol-2-ylcarbamoyl)benzamide], the IC50 on human GHS receptor [1] worked out at 1240 nM. Besides, on human GHS receptor [2], the Emax amounted to 9.89% and the half-maximal effective concentration (EC50) was found to be 1370 nM.

On human GHS receptor [1], `CC(C)(C)OC(=O)N1CCC(Oc2ccc(Cl)c(C(=O)NC(=O)Nc3nc4ccc(S(C)(=O)=O)cc4s3)c2)CC1` [Example 243, tert-butyl 4-(4-chloro-3-(6-(methylsulfonyl)benzo[d]thiazol-2-ylcarbamoyl-carbamoyl)phenoxy) piperidine-1-carboxylate] registered an IC50 of 14.3 nM. Further, on human GHS receptor [2], the Emax worked out at 7.67% and the EC50 worked out at 9.34 nM.

On human GHS receptor [1], `CC(C)c1ccccc1C(=O)NC(=O)Nc1nc2ccc(S(C)(=O)=O)cc2s1` [Example 136, N-[(6-Methylsulfonylbenzothiazol-2-yl)carbamoyl]-2-propan-2-yl-benzamide] yielded an IC50 of 197 nM. Moreover, on human GHS receptor [2], the Emax came to 21.5% and the EC50 is 217 nM.

`CN(C)[C@H]1CCN(c2ccc(Cl)c(C(=O)NC(=O)Nc3nc4ccc(S(C)(=O)=O)cc4s3)c2)C1` [Example 235, (S)-2-chloro-5-(3-(dimethylamino)pyrrolidin-1-yl)-N-(6-(methylsulfonyl)benzo[d]thiazol-2-ylcarbamoyl) benzamide] came in with an IC50 on human GHS receptor [1] of 22.7 nM. At human GHS receptor [2], the Emax is 19.6% and the EC50 is not below 20000 nM.

Turning to `CN(C)S(=O)(=O)c1ccc2nc(NC(=O)NC(=O)c3ccccc3Cl)sc2c1` [Example 232, 2-chloro-N-[[6-(dimethylsulfamoyl)-1,3-benzothiazol-2-yl]carbamoyl] benzamide], the IC50 at human GHS receptor [1] was 31.4 nM. For the same molecule, at human GHS receptor [2], the Emax came out at 12.6% and the 50% effective concentration (EC50) turned out to be 56.1 nM.

`CC(C)NCC(C)(C)S(=O)(=O)c1ccc2nc(NC(=O)NC(=O)c3ccccc3Cl)sc2c1` [Example 225, 2-chloro-N-(6-(1-(isopropylamino)-2-methylpropan-2-ylsulfonyl)benzo[d]thiazol-2-ylcarbamoyl)benzamide] yielded an IC50 on human GHS receptor [1] of 60.3 nM. Also, on human GHS receptor [2], the Emax is 27.8% and the EC50 was found to be 224 nM.

With `CN(C)CCOCCS(=O)(=O)c1ccc2nc(NC(=O)NC(=O)c3ccccc3Cl)sc2c1` [Example 43, 2-Chloro-N-[[6-[2-(2-dimethylaminoethoxy)ethylsulfonyl]benzothiazol-2-yl]carbamoyl]benzamide], the IC50 on human GHS receptor [1] is 51.7 nM. In addition, at human GHS receptor [2], the Emax came to 46% and the EC50 stood at 42.2 nM.

`CC(C)(C)OC(=O)N1CCN(c2ccc(Cl)c(C(=O)NC(=O)Nc3nc4ccc(S(C)(=O)=O)cc4s3)c2)CC1` [Example 234, tert-butyl 4-(4-chloro-3-(6-(methylsulfonyl)benzo[d]thiazol-2-ylcarbamoyl-carbamoyl)phenyl) piperazine-1-carboxylate]: at human GHS receptor [1], the IC50 stood at 3.82 nM. In addition, on human GHS receptor [2], the Emax was determined as 6.73% and the EC50 is not below 20000 nM.

On human GHS receptor [1], `O=C(NC(=O)c1ccccc1Cl)Nc1nc2ccc(S(=O)(=O)CCNC3CCCC3)cc2s1` [Example 17, 2-Chloro-N-[[6-[2-(cyclopentylamino)ethylsulfonyl]benzothiazol-2-yl]carbamoyl]benzamide] yielded a 50% inhibitory concentration (IC50) of 80.4 nM. Moreover, at human GHS receptor [2], the Emax is 42.1% and the EC50 is 6.03 nM.

For the molecule `O=C(NC(=O)c1ccccc1Cl)Nc1nc2ccc(S(=O)(=O)CCN3CC[C@@H](F)C3)cc2s1` [Example 32, 2-Chloro-N-[[6-[2-[(3R)-3-fluoropyrrolidin-1-yl]ethylsulfonyl]benzothiazol-2-yl]carbamoyl]benzamide], the IC50 at human GHS receptor [1] was 400 nM. Further, on human GHS receptor [2], the Emax was found to be 28% and the EC50 was found to be 309 nM.

`CS(=O)(=O)c1ccc2nc(NC(=O)NC(=O)c3cc(C4CCCC4)ccc3Cl)sc2c1` [Example 52, 2-Chloro-5-cyclopentyl-N-(6-(methylsulfonyl)benzothiazol-2-ylcarbamoyl)benzamide]: at human GHS receptor [1], the IC50 came out at 3.7 nM. Moreover, on human GHS receptor [2], the Emax is 0% and the EC50 was not below 25000 nM.
